Experimental data reported in ChEMBL document CHEMBL3885861, “Open TG-GATES”.

Organism: Rattus norvegicus
Experiment: Open TG-GATES - Regimen: Daily Repeat
Assay type: toxicity, organism-based, Sprague-Dawley
Design: regimen Daily Repeat, gender Male, age 6 weeks
Details: in vivo, po, 0 mg/kg, route gavage, dose level Control; for APTT / Bas / Eos / Fbg / Hb / Ht / Lym / MCH / MCHC / MCV / Mono / Neu / PT / Plat / RBC / Ret / WBC: tissue Blood; for KIDNEY_L / KIDNEY_R / KIDNEY_TOTAL: tissue Kidney; for LIVER: tissue Liver; for A/G / ALP / ALT / AST / BUN / CRE / Ca / Cl / DBIL / GLC / IP / K / LDH / Na / PL / RALB / TBIL / TC / TG / TP / gamma-GTP: tissue Plasma

CCOC(=O)CCC(=O)O[C@H]1[C@H](O[C@@H]2[C@@H](C)[C@H](O[C@H]3C[C@@](C)(OC)[C@@H](O)[C@H](C)O3)[C@@H](C)C(=O)O[C@H](CC)[C@@](C)(O)[C@H](O)[C@@H](C)C(=O)[C@H](C)C[C@@]2(C)O)O[C@H](C)C[C@@H]1N(C)C [ERYTHROMYCIN ETHYLSUCCINATE]
TERMINAL_BW (72 h, time 3 day): 237.5 g | APTT (72 h, time 3 day): 21.3 s | Bas (72 h, time 3 day): 0% | Eos (72 h, time 3 day): 1% | Fbg (72 h, time 3 day): 295.4 mg/dL | Hb (72 h, time 3 day): 13.4 g/dL | Ht (72 h, time 3 day): 39.6% | Lym (72 h, time 3 day): 78.6% | MCH (72 h, time 3 day): 21.3 pg | MCHC (72 h, time 3 day): 33.7% | MCV (72 h, time 3 day): 63 fL | Mono (72 h, time 3 day): 3.4% | Neu (72 h, time 3 day): 16.2% | PT (72 h, time 3 day): 16.3 s | Plat (72 h, time 3 day): 124.3 x10_4/uL | RBC (72 h, time 3 day): 628.8 x10_4/ul | Ret (72 h, time 3 day): 6.2% | WBC (72 h, time 3 day): 96.6 x10_2/uL | KIDNEY_L (72 h, time 3 day): 1.1 g | KIDNEY_R (72 h, time 3 day): 1.1 g | KIDNEY_TOTAL (72 h, time 3 day): 2.1 g | LIVER (72 h, time 3 day): 10.7 g | A/G (72 h, time 3 day): 1.2 | ALP (72 h, time 3 day): 1575.2 IU/L | ALT (72 h, time 3 day): 38.2 IU/L | AST (72 h, time 3 day): 68.6 IU/L | BUN (72 h, time 3 day): 17.8 mg/dL | CRE (72 h, time 3 day): 0.2 mg/dL | Ca (72 h, time 3 day): 10.1 mg/dL | Cl (72 h, time 3 day): 107.6 meq/L | DBIL (72 h, time 3 day): 0 mg/dL | GLC (72 h, time 3 day): 198.2 mg/dL | IP (72 h, time 3 day): 6.6 mg/dL | K (72 h, time 3 day): 4.3 meq/L | LDH (72 h, time 3 day): 181.8 IU/L | Na (72 h, time 3 day): 141 meq/L | PL (72 h, time 3 day): 139.8 mg/dL | RALB (72 h, time 3 day): 2.9 g/dL | TBIL (72 h, time 3 day): 0.016 mg/dL | TC (72 h, time 3 day): 71.4 mg/dL | TG (72 h, time 3 day): 91 mg/dL | TP (72 h, time 3 day): 5.4 g/dL | gamma-GTP (72 h, time 3 day): 1.2 IU/L | TERMINAL_BW ([…], time 7 day): 272.7 g | TERMINAL_BW ([…], time 14 day): 330.3 g | TERMINAL_BW ([…], time 28 day): 372.4 g | APTT ([…], time 7 day): 20.5 s | Bas ([…], time 7 day): 0% | Eos ([…], time 7 day): 1% | Fbg ([…], time 7 day): 307.2 mg/dL | Hb ([…], time 7 day): 14.1 g/dL | Ht ([…], time 7 day): 41.9% | Lym ([…], time 7 day): 78.2% | MCH ([…], time 7 day): 21 pg | MCHC ([…], time 7 day): 33.6% | MCV ([…], time 7 day): 62.4 fL | Mono ([…], time 7 day): 2.4% | Neu ([…], time 7 day): 17.4% | PT ([…], time 7 day): 16.6 s | Plat ([…], time 7 day): 119.4 x10_4/uL | RBC ([…], time 7 day): 673.2 x10_4/ul | Ret ([…], time 7 day): 6.2% | WBC ([…], time 7 day): 121.5 x10_2/uL | APTT ([…], time 14 day): 22.3 s | Bas ([…], time 14 day): 0% | Eos ([…], time 14 day): 1% | Fbg ([…], time 14 day): 317.8 mg/dL | Hb ([…], time 14 day): 13.9 g/dL | Ht ([…], time 14 day): 40.4% | Lym ([…], time 14 day): 80.2% | MCH ([…], time 14 day): 21.2 pg | MCHC ([…], time 14 day): 34.5% | MCV ([…], time 14 day): 61.5 fL | Mono ([…], time 14 day): 2.4% | Neu ([…], time 14 day): 14.8% | PT ([…], time 14 day): 16.3 s | Plat ([…], time 14 day): 104.3 x10_4/uL | RBC ([…], time 14 day): 656.6 x10_4/ul | Ret ([…], time 14 day): 5.2% | WBC ([…], time 14 day): 110.8 x10_2/uL | APTT ([…], time 28 day): 24.4 s | Bas ([…], time 28 day): 0% | Eos ([…], time 28 day): 1% | Fbg ([…], time 28 day): 317.2 mg/dL | Hb ([…], time 28 day): 15.2 g/dL | Ht ([…], time 28 day): 44% | Lym ([…], time 28 day): 81.8% | MCH ([…], time 28 day): 19.4 pg | MCHC ([…], time 28 day): 34.6% | MCV ([…], time 28 day): 56.2 fL | Mono ([…], time 28 day): 2.8% | Neu ([…], time 28 day): 13% | PT ([…], time 28 day): 16.4 s | Plat ([…], time 28 day): 99.6 x10_4/uL | RBC ([…], time 28 day): 783.8 x10_4/ul | Ret ([…], time 28 day): 2.7% | WBC ([…], time 28 day): 109.9 x10_2/uL | KIDNEY_L ([…], time 7 day): 1.1 g | KIDNEY_R ([…], time 7 day): 1.1 g | KIDNEY_TOTAL ([…], time 7 day): 2.2 g | KIDNEY_L ([…], time 14 day): 1.3 g | KIDNEY_R ([…], time 14 day): 1.3 g | KIDNEY_TOTAL ([…], time 14 day): 2.6 g | KIDNEY_L ([…], time 28 day): 1.4 g | KIDNEY_R ([…], time 28 day): 1.4 g | KIDNEY_TOTAL ([…], time 28 day): 2.8 g | LIVER ([…], time 7 day): 12.3 g | LIVER ([…], time 14 day): 14.7 g | LIVER ([…], time 28 day): 14.6 g | A/G ([…], time 7 day): 1.1 | ALP ([…], time 7 day): 1670.4 IU/L | ALT ([…], time 7 day): 43 IU/L | AST ([…], time 7 day): 72.2 IU/L | BUN ([…], time 7 day): 20.4 mg/dL | CRE ([…], time 7 day): 0.2 mg/dL | Ca ([…], time 7 day): 10.7 mg/dL | Cl ([…], time 7 day): 107.6 meq/L | DBIL ([…], time 7 day): 0 mg/dL | GLC ([…], time 7 day): 216.8 mg/dL | IP ([…], time 7 day): 7.3 mg/dL | K ([…], time 7 day): 4.3 meq/L | LDH ([…], time 7 day): 201.8 IU/L | Na ([…], time 7 day): 141.2 meq/L | PL ([…], time 7 day): 155.2 mg/dL | RALB ([…], time 7 day): 2.9 g/dL | TBIL ([…], time 7 day): 0 mg/dL | TC ([…], time 7 day): 70.8 mg/dL | TG ([…], time 7 day): 133.4 mg/dL | TP ([…], time 7 day): 5.6 g/dL | gamma-GTP ([…], time 7 day): 1.4 IU/L | A/G ([…], time 14 day): 1.1 | ALP ([…], time 14 day): 1330.4 IU/L | ALT ([…], time 14 day): 46.6 IU/L | AST ([…], time 14 day): 76 IU/L | BUN ([…], time 14 day): 21 mg/dL | CRE ([…], time 14 day): 0.2 mg/dL | Ca ([…], time 14 day): 10.5 mg/dL | Cl ([…], time 14 day): 105.2 meq/L | DBIL ([…], time 14 day): 0 mg/dL | GLC ([…], time 14 day): 207.2 mg/dL | IP ([…], time 14 day): 7.1 mg/dL | K ([…], time 14 day): 4.5 meq/L | LDH ([…], time 14 day): 208.6 IU/L | Na ([…], time 14 day): 141.4 meq/L | PL ([…], time 14 day): 153.4 mg/dL | RALB ([…], time 14 day): 2.9 g/dL | TBIL ([…], time 14 day): 0 mg/dL | TC ([…], time 14 day): 73 mg/dL | TG ([…], time 14 day): 135.2 mg/dL | TP ([…], time 14 day): 5.7 g/dL | gamma-GTP ([…], time 14 day): 2.2 IU/L | A/G ([…], time 28 day): 1.1 | ALP ([…], time 28 day): 1212.8 IU/L | ALT ([…], time 28 day): 45.8 IU/L | AST ([…], time 28 day): 71.6 IU/L | BUN ([…], time 28 day): 19.6 mg/dL | CRE ([…], time 28 day): 0.2 mg/dL | Ca ([…], time 28 day): 10.4 mg/dL | Cl ([…], time 28 day): 106.6 meq/L | DBIL ([…], time 28 day): 0 mg/dL | GLC ([…], time 28 day): 189.4 mg/dL | IP ([…], time 28 day): 6.2 mg/dL | K ([…], time 28 day): 4.1 meq/L | LDH ([…], time 28 day): 130.6 IU/L | Na ([…], time 28 day): 141 meq/L | PL ([…], time 28 day): 135.8 mg/dL | RALB ([…], time 28 day): 3 g/dL | TBIL ([…], time 28 day): 0.01 mg/dL | TC ([…], time 28 day): 62 mg/dL | TG ([…], time 28 day): 118.4 mg/dL | TP ([…], time 28 day): 5.9 g/dL | gamma-GTP ([…], time 28 day): 2.8 IU/L
